Results from patent publication US20240180881A1, “METHODS FOR DECREASING RESISTANCE TO CHEMOTHERAPY” (National Institute of Immunology, priority 2022, published 2024).

Tested on: HCT116 IC60 CPTR tumors
Assay: siRNA-based ablation in xenograft studies
Format: in vivo, SCID mice
Description: To determine whether the three key players (MRP2, BLM and RAD54) were indispensable for reverting chemoresistance in colon cancer, siRNA-based ablation in xenograft studies was carried out using SCID mice. Once the tumor volume reached 50 mm^3, either siControl or siRAD54 or siBLM or siMRP2 were injected at the base of the tumor using TAC6 polymer mediated in vivo delivery. The experiment was stopped after 21 days after which the levels of RAD54, BLM, MRP2 transcripts were analyzed by RT-qPCR to validate the downregulation of the cognate genes (FIG. 14A-14C). […] This is probably because of greater retention of CPT inside the tumors and thereby allowing increased chemotherapeutic potential of the drug (FIG. 7B).

Question: Which tumor growth (siBLM, compound and CPT) does the source give for `CN1CCN(C2=Nc3ccccc3Oc3ccc(Cl)cc32)CC1.O=C(O)CCC(=O)O` [C17, Loxapine succinate] here?
Answer: rescued tumor growth

Question: What about the tumor volume (siControl, compound and CPT compared to only CPT) of the same compound?
Answer: decreased tumor volume

Question: And the tumor development (siMRP2, compound and CPT)?
Answer: decreased tumor development
